Publication PMC5681660, “Reduced hepatitis B and D viral entry using clinically applied drugs as novel inhibitors of the bile acid transporter NTCP” (Scientific Reports, 2017)
Where a name gives a salt, the structure may show the parent alone.

Target: T1, human NTCP (Homo sapiens, UniProt Q14973)
T1 sequence (Q14973 1-349): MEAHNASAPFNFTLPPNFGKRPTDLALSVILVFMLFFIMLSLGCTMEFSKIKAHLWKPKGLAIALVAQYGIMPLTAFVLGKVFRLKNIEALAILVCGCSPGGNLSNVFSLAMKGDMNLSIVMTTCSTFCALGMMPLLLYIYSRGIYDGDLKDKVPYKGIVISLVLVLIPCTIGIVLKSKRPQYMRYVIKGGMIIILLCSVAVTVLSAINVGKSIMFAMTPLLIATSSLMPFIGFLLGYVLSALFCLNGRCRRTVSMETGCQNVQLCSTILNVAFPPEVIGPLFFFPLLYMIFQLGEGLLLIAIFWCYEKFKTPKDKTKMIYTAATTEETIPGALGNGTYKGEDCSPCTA
Assay: Screening taurocholate uptake assay (96-well, [14C]taurocholate, 10 µM drug)
Conditions: for B-score functional assay: 10 µM drug

[1] = combined ranking of functional and binding screening assays
[2] = ranking over the functional and the binding screening assay
[3] = screening taurocholate uptake, B-score

CN1CCN(C(c2ccccc2)c2ccccc2)CC1.Cl [Cyclizine hydrochloride]
Ranking score [1]: 578.424 | B-score functional assay (screening taurocholate uptake): -0.953

CCCCc1cc2ccccc2c(OCCN(C)C)n1 [Dimethisoquin hydrochloride]
Ranking score [2]: 238.967 | B-score functional assay (screening taurocholate uptake): -0.419

N=C(N)N/N=C/c1c(Cl)cccc1Cl [Guanabenz acetate]
Ranking score [1]: 467.541 | B-score functional assay (screening taurocholate uptake): -1.531

O=C1CCc2ccc(OCCCCN3CCN(c4cccc(Cl)c4Cl)CC3)cc2N1 [Aripiprazole]
Ranking score [1]: 580.393 | B-score functional assay (screening taurocholate uptake): 1.007

CC[N+](CC)(CC(=O)Nc1c(C)cccc1C)Cc1ccccc1 [Denatonium benzoate]
Ranking score [1]: 531.85 | B-score functional assay (screening taurocholate uptake): -0.069

CN(C)CCC(c1ccc(Br)cc1)c1ccccn1 (centres unmarked) [Brompheniramine maleate]
Ranking score [1]: 520.776 | B-score functional assay (screening taurocholate uptake): -0.661

C#CCN(C)[C@H](C)Cc1ccccc1 [Selegiline hydrochloride]
Ranking score [1]: 462.99 | B-score functional assay (screening taurocholate uptake): -1.141

CN1CCN(CCCN2c3ccccc3Sc3ccc(Cl)cc32)CC1 [Prochlorperazine dimaleate]
Ranking score [2]: 89.1291 | B-score functional assay (screening taurocholate uptake): -4.76

CN(C)CCN(Cc1ccccc1)c1ccccn1 [Tripelennamine hydrochloride]
Ranking score [1]: 512.348 | B-score functional assay (screening taurocholate uptake): -0.493

Clc1ccccc1C(c1ccccc1)(c1ccccc1)n1ccnc1 [Clotrimazole]
Ranking score [2]: 204.208 | B-score functional assay (screening taurocholate uptake): -1.203

CCc1cccc(CC)c1NC(=O)CN(CC(=O)O)CC(=O)O [Etifenin]
Ranking score [1]: 532.717 | B-score functional assay (screening taurocholate uptake): -0.065

CCOc1ccc2ccccc2c1C(=O)N[C@@H]1C(=O)N2[C@@H]1SC(C)(C)[C@@H]2C(=O)O [Nafcillin sodium salt monohydrate]
Ranking score [2]: 223.052 | B-score functional assay (screening taurocholate uptake): 0.036

Nc1ccccc1S(N)(=O)=O [2-Aminobenzenesulfonamide]
Ranking score [1]: 626.378 | B-score functional assay (screening taurocholate uptake): -0.592

COc1ccc(C(CN(C)C)C2(O)CCCCC2)cc1 (centres unmarked) [Venlafaxine]
Ranking score (combined ranking from functional and binding screening assays): 459.852 | B-score functional assay (screen, taurocholate uptake): -0.102

CC(C)c1c(C(=O)Nc2ccccc2)c(-c2ccccc2)c(-c2ccc(F)cc2)n1CC[C@@H](O)C[C@@H](O)CC(=O)O [Atorvastatin]
Ranking score [2]: 231.469 | B-score functional assay (screening taurocholate uptake): -2.669

CC(C)CC(N(C)C)C1(c2ccc(Cl)cc2)CCC1.Cl (centres unmarked) [Sibutramine HCl]
Ranking score [2]: 211.232 | B-score functional assay (screening taurocholate uptake): -0.386

Nc1ccc(/N=N/c2ccccc2)c(N)n1 [Phenazopyridine hydrochloride]
Ranking score [2]: 182.587 | B-score functional assay (screening taurocholate uptake): -0.376

O=C(O)c1cc(-c2ccc(F)cc2F)ccc1O [Diflunisal]
Ranking score [2]: 134.198 | B-score functional assay (screening taurocholate uptake): -4.496

CN[C@@H]1[C@H](O[C@H]2[C@H](O[C@H]3[C@H](O)[C@@H](O)[C@H](NC(=N)N)[C@@H](O)[C@@H]3NC(=N)N)O[C@@H](C)[C@]2(O)CO)O[C@@H](CO)[C@H](O)[C@H]1O [Dihydrostreptomycin sulfate]
Ranking score [2]: 143.478 | B-score functional assay (screening taurocholate uptake): -2.479

C[C@H](Cc1cc2c(c(C(N)=O)c1)N(CCCO)CC2)NCCOc1ccccc1OCC(F)(F)F [Silodosin]
Ranking score [1]: 510.413 | B-score functional assay (screening taurocholate uptake): 1.072

CN1CC2c3ccccc3Oc3ccc(Cl)cc3C2C1 (centres unmarked) [Asenapine maleate]
Ranking score [2]: 127.491 | B-score functional assay (screening taurocholate uptake): -0.488

Clc1ccc(Nc2nnc(Cc3ccncc3)c3ccccc23)cc1 [Vatalanib]
Ranking score [2]: 181.191 | B-score functional assay (screening taurocholate uptake): -2.979

O=C1c2c(O)cccc2Cc2cccc(O)c21 [Anthralin]
Ranking score [2]: 68.2788 | B-score functional assay (screening taurocholate uptake): 0.019

CC(=O)Oc1ccccc1C(=O)Nc1ncc([N+](=O)[O-])s1 [Nitazoxanide]
Ranking score [2]: 189.082 | B-score functional assay (screening taurocholate uptake): -2.727

c1ccc(-c2ccc(C(c3ccccc3)n3ccnc3)cc2)cc1 (centres unmarked) [Bifonazole]
Ranking score [2]: 164.499 | B-score functional assay (screening taurocholate uptake): -2.294

CSc1nc2cc(Cl)c(Oc3cccc(Cl)c3Cl)cc2[nH]1 [Triclabendazole]
Ranking score [1]: 541.575 | B-score functional assay (screening taurocholate uptake): -0.202

Oc1ccc(C2CNCCc3c2cc(O)c(O)c3Cl)cc1 (centres unmarked) [Fenoldopam]
Ranking score [2]: 222.621 | B-score functional assay (screening taurocholate uptake): 0.056

O=c1[nH]c2ccccc2n1CCCN1CCC(n2c(=O)[nH]c3cc(Cl)ccc32)CC1 [Domperidone]
Ranking score [1]: 475.277 | B-score functional assay (screening taurocholate uptake): -1.309

O=C(Nc1cccc2c(=O)cc(-c3nnn[nH]3)oc12)c1ccc(OCCCCc2ccccc2)cc1 [Pranlukast]
Ranking score [2]: 43.359 | B-score functional assay (screening taurocholate uptake): -8.959

CS(=O)(=O)O.Cc1ccc2c(c1)c1c3n2CCNC3CCC1 (centres unmarked) [Pirlindole mesylate]
Ranking score [1]: 496.839 | B-score functional assay (screening taurocholate uptake): 0.129

CCN(C)C(=O)Oc1cccc([C@H](C)N(C)C)c1 [Rivastigmine]
Ranking score [1]: 642.937 | B-score functional assay (screening taurocholate uptake): -0.006

CN(C)CCn1nnnc1SCC1=C(C(=O)O)N2C(=O)[C@@H](NC(=O)Cc3csc(N)n3)[C@H]2SC1 [Cefotiam hydrochloride]
Ranking score [2]: 197.995 | B-score functional assay (screening taurocholate uptake): 1.511

CCCC(=O)Nc1ncnc2c1ncn2[C@@H]1O[C@@H]2COP(=O)([O-])O[C@H]2[C@H]1OC(=O)CCC.[Na+] [Bucladesine sodium salt]
Ranking score [1]: 477.022 | B-score functional assay (screening taurocholate uptake): -0.403

CC(C)(O/N=C(\C(=O)N[C@@H]1C(=O)N2C(C(=O)[O-])=C(C[n+]3ccccc3)CS[C@H]12)c1csc(N)n1)C(=O)O [Ceftazidime pentahydrate]
Ranking score [1]: 560.357 | B-score functional assay (screening taurocholate uptake): -1.028

O=C1NCN(c2ccccc2)C12CCN(CCCC(c1ccc(F)cc1)c1ccc(F)cc1)CC2 [Fluspirilen]
Ranking score [1]: 517.364 | B-score functional assay (screening taurocholate uptake): 0.19

CCOC(=O)N1CCC(=C2c3ccc(Cl)cc3CCc3cccnc32)CC1 [Loratadine]
Ranking score [2]: 78.3326 | B-score functional assay (screening taurocholate uptake): -3.222

O=C1c2cccc(O)c2C(=O)c2c(O)cccc21 [1,8-Dihydroxyanthraquinone]
Ranking score [1]: 1173.42 | B-score functional assay [3]: 1.277

CN(Cc1cnc2nc(N)nc(N)c2n1)c1ccc(C(=O)N[C@@H](CCC(=O)O)C(=O)O)cc1 (racemic) [Amethopterin (R,S)]
Ranking score [1]: 579.365 | B-score functional assay (screening taurocholate uptake): -0.795

CC(N)CCCC(C)(C)O (centres unmarked) [Heptaminol hydrochloride]
Ranking score [1]: 1189.85 | B-score functional assay [3]: 2.111

COc1ccc(CCN2CCC(Nc3nc4ccccc4n3Cc3ccc(F)cc3)CC2)cc1 [Astemizole]
Ranking score [2]: 231.853 | B-score functional assay (screening taurocholate uptake): -0.026

CC(COc1ccccc1)N(CCCl)Cc1ccccc1 (centres unmarked) [Phenoxybenzamine hydrochloride]
Ranking score [2]: 229.8 | B-score functional assay (screening taurocholate uptake): -0.06

O=C(COc1ccc(Cl)cc1)N1CCN(Cc2ccc3c(c2)OCO3)CC1 [Fipexide hydrochloride]
Ranking score [2]: 172.884 | B-score functional assay (screening taurocholate uptake): -2.118

CNC[C@H](O)[C@@H](O)[C@H](O)[C@H](O)CO [Meglumine]
Ranking score [2]: 72.6498 | B-score functional assay (screening taurocholate uptake): -3.271

CN(CCOc1ccc(CC2SC(=O)NC2=O)cc1)c1ccccn1.Cl (centres unmarked) [Rosiglitazone Hydrochloride]
Ranking score [2]: 31.1127 | B-score functional assay (screening taurocholate uptake): -7.292

CC1(C)S[C@@H]2[C@H](NC(=O)[C@H](N)c3ccccc3)C(=O)N2[C@H]1C(=O)O [Ampicillin trihydrate]
Ranking score [2]: 199.178 | B-score functional assay (screening taurocholate uptake): -0.594

CC(C)NCC(O)c1cc(O)cc(O)c1.CC(C)NCC(O)c1cc(O)cc(O)c1.O=S(=O)(O)O (centres unmarked)
Ranking score [1]: 489.878 | B-score functional assay (screening taurocholate uptake): 0.057

CC(C)[C@H](N)C(=O)OCCOCn1cnc2c(=O)[nH]c(N)nc21 [Valacyclovir hydrochloride]
Ranking score [1]: 518.986 | B-score functional assay (screening taurocholate uptake): 0.32

Oc1cc(Cl)ccc1Oc1ccc(Cl)cc1Cl [Triclosan]
Ranking score [2]: 149.432 | B-score functional assay (screening taurocholate uptake): -1.77

CNCCc1ccccn1.CS(=O)(=O)O.CS(=O)(=O)O [Betahistine mesylate]
Ranking score [2]: 145.348 | B-score functional assay (screening taurocholate uptake): -5.129

CNCC(O)c1ccc(O)cc1 (racemic) [(+,-)-Synephrine]
Ranking score [1]: 485.351 | B-score functional assay (screening taurocholate uptake): -0.397

CCC(=O)O[C@]1(C(=O)CCl)[C@@H](C)C[C@H]2[C@@H]3CCC4=CC(=O)C=C[C@]4(C)[C@@]3(F)[C@@H](O)C[C@@]21C [Clobetasol propionate]
Ranking score [2]: 265.371 | B-score functional assay (screening taurocholate uptake): -0.819

CCCC1O[C@@H]2C[C@H]3[C@@H]4CCC5=CC(=O)C=C[C@]5(C)[C@H]4[C@@H](O)C[C@]3(C)[C@]2(C(=O)CO)O1 (some centres unmarked) [Budesonide]
Ranking score [1]: 628.462 | B-score functional assay (screening taurocholate uptake): -0.64

CCc1cccc2c3c([nH]c12)C(CC)(CC(=O)O)OCC3 (centres unmarked) [Etodolac]
Ranking score [2]: 112.748 | B-score functional assay (screening taurocholate uptake): -0.274

CC(=O)OCC(=O)[C@@]12OC(C)(C)O[C@@H]1C[C@H]1[C@@H]3C[C@H](F)C4=CC(=O)C=C[C@]4(C)[C@@]3(F)[C@@H](O)C[C@@]12C [Fluocinonide]
Ranking score [1]: 619.745 | B-score functional assay (screening taurocholate uptake): 0.319

COC(=O)C1=C(C)NC(C)=C(C(=O)OCC(C)C)C1c1ccccc1[N+](=O)[O-] (centres unmarked) [Nisoldipine]
Ranking score [2]: 25.6905 | B-score functional assay (screening taurocholate uptake): -7.104
